The values that follow come from US20210161999A1, “COMPOSITIONS AND METHODS RELATED TO OVERCOMING INNATE IMMUNE BARRIERS TO CANCER IMMUNOTHERAPY” (Health Research, Inc., priority 2018, published 2021).

Entries after “also recorded” stand apart in the source; their conditions may differ. *1 amine or outer side, *2 acyl side, *3 side chain or, on linkers, in order; H or OH if unused. Where a SMILES comes first, the peptide text is derived from it. Bridges are numbered along the chain shown (N, C = ends). Roman numbers before positions name the chains, in order. [ ]: non-standard residue; d: D form. Actinocin(9to1) = Cc1c2oc3c(C)ccc(C(=O)[*:1])c3nc-2c(C(=O)[*:2])c(N)c1=O; NMeV = CN[C@H](C(=O)O)C(C)C; Sar = CNCC(=O)O

This assay concerns PMN suppressor phenotype (suppression of anti-CD3/CD28-stimulated T cell proliferation). Briefly: Coculture of PMN with ascites supernatants and anti-CD3/CD28-stimulated T cells; T cell proliferation by [3H] thymidine incorporation. It counts as cell-based, human. The settings on record: for effect on ascites-induced PMN-mediated suppression: L-arginine 50 μM-1 mM, NAC 10-25 mM, DNase I 50-100 IU (n=3). How it is done: Freshly isolated T cells (1e5) were stimulated with anti-CD3/CD28 Dynabeads (2.5 μl; Thermo Fisher Scientific) and cocultured with autologous PMN (1:1) and ascites supernatants (50% final well volume) in an incubator at 37° C., 5% CO2. After 72 h, [^3H] thymidine (1 μCi per well) was added and allowed to incorporate for 16-18 h. Cells were harvested onto a Filtermat and counted on a Beta counter. Results are expressed as net cpm [calculated by subtracting the average cpm of unstimulated T cells from the average cpm of stimulated T cells].
Where indicated, T cells, PMN, and ascites supernatants underwent various pretreatments. Where indicated, T cells were pretreated for lh with neutralizing antibody against ICAM-I (1-10 μg), IgG1 isotype (1-10 μg), or media (RPMI 1640, 5-10% heat-inactivated FBS, HEPES, sodium pyruvate, non-essential amino acids, and penicillin-streptomycin).
Where indicated, PMN were pretreated for lh with neutralizing antibody against CD11b (1-10 μg), TGF-beta receptor 1 (1-10 μg) or IgG1 isotype (1-10 μg); thapsigargin (THG, 0.5-2 μM), diphenyleneiodonium (DPI, 1-25 μM), N-Formylmethionine-leucyl-phenylalanine (fMLF, 1-100 nM), brefeldin-A (1-10 μg/mL), ER export inhibitor 1 (Exol, 20-75 μM), CI-amidine (10-20 μM), SNARE decoys: TAT-SNAP23 (0.6-0.9 μg/mL), TAT-SYN4 (0.6-0.9 μg/mL), TAT-GST (0.6-0.9 μg/mL) (produced as described in the laboratory of Dr. Kenneth McLeish), puromycin and actinomycin-D (1-5 μg/mL), or with media.
Where indicated, ascites supernatants were pretreated with heat (56° C., lh) to denature heat-labile constituents or proteinase-K (100 μM, 37° C., 12 h) to degrade proteins. Two formulations of compstatin, a peptide C3 inhibitor, were used: CS (250 μM, 30° C., 2 h, Tocris) and Cp40 (1.25-20 μM, 30° C., 2 h), as well as a scramble peptide. In separate studies, ascites supernatants were ultra-centrifuged (100,000g, 4° C., 1.5 h) to separate the membrane-rich (MR-ASC) and membrane-depleted (MD-ASC) fractions. In others, ascites supernatants were pretreated for lh with neutralizing antibody against C5 (0.5-1.0 μg, A217; Quidel, San Diego, Calif.) or C7 (0.5-1.0 μg, A221; Quidel) or IgG1 isotype (0.5-1.0 μg), or with OmCI (0.6-1.2 μM), a peptide C5 inhibitor derived from the saliva of Ornithodoros moubata (35, 36).

Setting [1] is: added to cocultures, indomethacin 10 μM, zileuton 50 μM, 1-MT 100 μM.
Setting [2] is: PMN pretreated, brefeldin-A 1-10 μg/mL, Exo1 20-75 μM (n=3).
Where [3] appears, read: PMN pretreated for 1 h prior to coculture, puromycin 1 μg, D-actinomycin 1 μg (n=8).
Setting [4] is: PMN pretreated, fMLF 100 nM, THG 1 μM, DPI 1 μM (n=7).

Consider `Cn1cc(CC(N)C(=O)O)c2ccccc21` (racemic) [1-methyl-DL-tryptophan], for which the “effect on PMN suppressor phenotype” value under setting [1] is reported as “did not reverse the phenotype; also recorded: had no effect on the PMN suppressor phenotype”.

Consider `NC(=O)[C@H](CCCN=C(N)CCl)NC(=O)c1ccccc1` [CI-amidine], for which, where the note is “PMN pretreated with CI-amidine (10-20 μM) for 1 h prior to coculture (n=3)”, the “effect on PMN suppressor phenotype” value was “did not abrogate the PMN suppressor phenotype; also recorded: had no effect on the PMN suppressor phenotype”.

Take `CC[C@H](C)[C@H](N)C(=O)N[C@H]1CSSC[C@@H](C(=O)N[C@H](C(N)=O)[C@@H](C)O)NC(=O)[C@H](CCCN=C(N)N)NC(=O)[C@H](Cc2cnc[nH]2)NC(=O)[C@H](Cc2cnc[nH]2)NC(=O)CNC(=O)[C@H](Cc2c[nH]c3ccccc23)NC(=O)[C@H](CC(=O)O)NC(=O)[C@H](CCC(N)=O)NC(=O)[C@H](C(C)C)NC(=O)[C@H](C(C)C)NC1=O` [CS, compstatin]: the “effect on PMN suppressor phenotype” value was “abrogated the PMN suppressor phenotype” (added to ASC 2 h prior to coculture with PMN and T cells, CS 250 μM, Cp40 20 μM, scramble peptide 20 μM); “completely abrogated the PMN suppressor phenotype” (added to ASC 2 h prior to coculture with PMN and T cells, CS 250 μM, Cp40 20 μM, scramble peptide 20 μM, listed as compstatin).

`COC(=O)c1ccccc1NC(=O)c1ccc(F)cc1` [ER export inhibitor 1]: the “effect on PMN suppressor phenotype” value by setting is: under setting [2], “abrogated the suppressor phenotype”; (PMN pretreated, brefeldin-A 1-10 μg/mL, Exo1 20-75 μM (n=3), listed as Exo1) “abrogated the PMN suppressor phenotype”.

Take `N=C(N)NCCC[C@H](N)C(=O)O` [L-arginine]: where the note is “added to cocultures”, the “effect on ascites-induced PMN-mediated suppression” value is “did not reverse ascites-induced PMN-mediated suppression; also recorded: had no effect on T cell suppression”.

`CC(=O)N[C@@H](CS)C(=O)O` [N-acetylcysteine]: the “effect on ascites-induced PMN-mediated suppression” value is, setting by setting: (added to cocultures) “did not reverse ascites-induced PMN-mediated suppression”; (added to cocultures, listed as NAC) “did not reverse suppression”.

Turning to `Cc1c2oc3c(C)ccc(C(=O)N[C@@H]4C(=O)N[C@H](C(C)C)C(=O)N5CCC[C@H]5C(=O)N(C)CC(=O)N(C)[C@@H](C(C)C)C(=O)O[C@@H]4C)c3nc-2c(C(=O)N[C@@H]2C(=O)N[C@H](C(C)C)C(=O)N3CCC[C@H]3C(=O)N(C)CC(=O)N(C)[C@@H](C(C)C)C(=O)O[C@@H]2C)c(N)c1=O` [actinomycin D] (I: T[dV]P[Sar][NMeV] / II: T[dV]P[Sar][NMeV]; ester I:1-I:C, II:1-II:C; linker I:N-II:N via Actinocin(9to1)), the “effect on PMN suppressor phenotype” value is “variable abrogation of the suppressor phenotype” under setting [3] and “had more variable effects” (PMN pretreated for 1 h prior to coculture, puromycin 1 μg, D-actinomycin 1 μg (n=8), listed as D-actinomycin).

Turning to `C[C@H]1CCC/C=C/[C@@H]2C[C@H](O)C[C@H]2[C@H](O)/C=C/C(=O)O1` [brefeldin-A], the “effect on PMN suppressor phenotype” value under setting [2] is “abrogated the PMN suppressor phenotype”.

Turning to `c1ccc2c(c1)[I+]c1ccccc1-2` [diphenyleneiodonium], the “effect on PMN suppressor phenotype” value runs as follows: under setting [4], “abrogated the PMN suppressor phenotype”; (PMN pretreated, fMLF 100 nM, THG 1 μM, DPI 1 μM (n=7), listed as DPI) “did abrogate the PMN suppressor phenotype”.

As to `COc1ccc2c(c1)c(CC(=O)O)c(C)n2C(=O)c1ccc(Cl)cc1` [indomethacin], the “effect on PMN suppressor phenotype” value was “had no effect on the PMN suppressor phenotype” under setting [1] and “did not reverse the phenotype” (added to cocultures, indomethacin 10 μM, zileuton 50 μM, 1-MT 100 μM, listed as Indomethacin).

Turning to `COc1ccc(C[C@H](N)C(=O)N[C@H]2[C@@H](O)[C@H](n3cnc4c(N(C)C)ncnc43)O[C@@H]2CO)cc1` [puromycin], the “effect on PMN suppressor phenotype” value under setting [3] was “abrogated the PMN suppressor phenotype; also recorded: variable abrogation of the suppressor phenotype”.

For `C/C=C(/C)C(=O)O[C@H]1C(C)=C2[C@H]([C@@H]1OC(=O)CCCCCCC)[C@@](C)(OC(C)=O)C[C@H](OC(=O)CCC)[C@@]1(O)[C@H]2OC(=O)[C@@]1(C)O` [thapsigargin], the “effect on PMN suppressor phenotype” value under setting [4] is given as “abrogated the PMN suppressor phenotype”.

Take `CC(c1cc2ccccc2s1)N(O)C(N)=O` (stereo not shown) [zileuton]: the “effect on PMN suppressor phenotype” value under setting [1] is reported as “did not reverse the phenotype; also recorded: had no effect on the PMN suppressor phenotype”.

Consider “N-Formylmethionine-leucyl-phenylalanine [fMLF]”, for which the “effect on PMN suppressor phenotype” value under setting [4] is listed as “abrogated the PMN suppressor phenotype; also recorded: prevented induction of the PMN suppressor phenotype”.

B1: OmCI: peptide C5 inhibitor derived from the saliva of Ornithodoros moubata (protein, UniProt Q5YD59 19-168, looked up)
Complement inhibitor: DSESDCTGSEPVDAFQAFSEGKEAYVLVRSTDPKARDCLKGEPAGEKQDNTLPVMMTFKNGTDWASTDWTFTLDGAKVTATLGNLTQNREVVYDSQSHHCHVDKVEKEVPDYEMWMLDAGGLEVEVECCRQKLEELASGRNQMYPHLKDC
Regarding B1, the “effect on PMN suppressor phenotype” value (ASC pretreated 1 h with neutralizing Ab against C5 or C7 (0.5-1.0 μg) or OmCI (0.6-1.2 μM) prior to coculture) is on record as “partially abrogated the PMN suppressor phenotype; also recorded: had a partial abrogating effect on T cell suppression”.

B2: DNase I: enzyme added to the cocultures to degrade NETs (protein, UniProt P24855 23-282, looked up)
Deoxyribonuclease-1: LKIAAFNIQTFGETKMSNATLVSYIVQILSRYDIALVQEVRDSHLTAVGKLLDNLNQDAPDTYHYVVSEPLGRNSYKERYLFVYRPDQVSAVDSYYYDDGCEPCGNDTFNREPAIVRFFSRFTEVREFAIVPLHAAPGDAVAEIDALYDVYLDVQEKWGLEDVMLMGDFNAGCSYVRPSQWSSIRLWTSPTFQWLIPDSADTTATPTHCAYDRIVVAGMLLRGAVVPDSALPFNFQAAYGLSDQLAQAISDHYPVEVMLK
Regarding B2, the “effect on ascites-induced PMN-mediated suppression” value (added to cocultures) is reported as “did not reverse ascites-induced PMN-mediated suppression; also recorded: had no effect on the PMN suppressor phenotype”.
